Like-named read-outs stand apart in the source and are kept apart here.
Legend:
[1] = system: PC3; assay: Cells with greater than 4N DNA by flow cytometry, PC3
Protocol: (§1) A2780, A375, PC-3 and SK-MEL-2 cells were seeded at 2×10^4 cells/ml and grown on 6 well cell culture dishes overnight at 37° C. with 5% CO2. […] At the relevant time points cells were harvested with trypsin ethylenediaminetetraacetic acid (EDTA) 1× (Gibco/Invitrogen [Carlsbad, Calif., USA]), washed once with phosphate-buffered saline (PBS), fixed in 70% ethanol and stored at −20° C. for at least 24 hours. The cells were washed once more in PBS, then resuspended in 50 μg/ml propidium iodide (Invitrogen, [Carlsbad, Calif., USA]) and 30 μg/ml ribonuclease (RNAse) A (Sigma [St Louis, Mo., USA]) in PBS and incubated for 30 minutes at room temperature protected from light. Cell cycle distributions were determined by measuring deoxyribonucleic acid (DNA) content using flow cytometry on a FACS Canto II flow cytometer (Becton Dickinson [San Jose, Calif., USA]) and samples were analyzed using [sequence] software (Becton Dickinson [San Jose, Calif., USA]).

[2] = system: A2780; assay: Cells with greater than 4N DNA by flow cytometry, A2780
Protocol: as §1

[3] = system: SKMEL-2; assay: BrdU proliferation assay, SKMEL-2; settings: Homo sapiens, SK-MEL-2, 96 h
Protocol: (§2) A2780, A375, PC-3, and SK-MeI-2 human tumor cell lines were seeded at 2.0×10^3, 1.0×10^3, 4.0×10^3 and 2.0×10^3 cells per well, respectively, in 80 μL of the appropriate cell culture growth media. Plating densities were chosen to ensure optimal linear growth over 120 hours. After 20 hours, 10 μL of each compound was added to the cells in a matrix with dose responses of both agents. […] Each matrix was generated in triplicate with each replicate on a separate plate.
(§3) Cell proliferation of each cell line was measured using the cell proliferation enzyme-linked immunosorbent assay (ELISA), 5-bromo-2-deoxyuridine (BrdU) colorimetric kit according to the manufacturer's instructions (Roche [Mannheim, Germany]). The assay measures cell proliferation by quantifying BrdU incorporation into replicating deoxyribonucleic acid (DNA). Briefly, each well was incubated with 10 μL of BrdU labeling reagent for 2 hours at 37° C. in a humidified cell culture chamber. After aspiration of the labeling media, the plates were wrapped in foil and kept at 4° C. to assay at a future time. The cells were fixed and denatured by adding 100 µL of ethanol to each well and incubated for 30 minutes at room temperature. The ethanol was aspirated and 50 μl of blocking reagent (Roche [Mannheim, Germany]) was added to the cells and incubated for 30 minutes. 100 μL of peroxidase-conjugated anti BrdU antibody ([anti-BrdU-POD]; 1:100 in antibody dilution buffer) was added to the cells. The cells were incubated with the antibody for 120 minutes at room temperature. The cells were then washed 2× with 150 μL of wash buffer per well and 100 μL of tetramethyl benzidine was then added. The cells were incubated for 15 to 30 minutes at room temperature prior to spectrophotometric analysis. A SpectraMax Plus 384 plate reader (Molecular Devices [Sunny Vale Calif., USA]) or WALLAC 1420 Workstation (Perkin Elmer [Turku, Finland]) were used to measure the absorbance of each well at 395 or 405 nm, respectively, depending on the machine used. The A2780 and A375 cell lines were measured using the SpectraMax Plus at 395 nm, while the PC-3 and SK-Mel-2 cell lines were measured using the WALLAC 1420 Workstation at 405 nm. Analysis of the data was performed using GraphPad Prism 5.0.

[4] = system: NCI-H23 Non Small Cell Lung Carcinoma Xenografts; assay: Anti-tumor activity in female nude mice bearing NCI-H23 xenografts; settings: for TGI: Day 99; for TFS (tumor-free survivors): Day 135, n=8
Protocol: MLN8237 was prepared in 10% hydroxypropyl-beta-cyclodextrin (HP-β-CD) (Sigma, St. Louis, Mo., USA)+1% NaHCO3 (Sigma, St. Louis, Mo., USA) every 5 days and stored at approximately 25° C. in the dark.
5.0×10^6 NCI-H23 cells/animal (0.1 ml injection volume) were implanted SC into the right flank of Balb/c nude mice.
Experimental Design: 7-9 week old female Balb/c nude mice were inoculated subcutaneously in the flank (cell suspension) with 5.0×10^6 NCI-H23 cells. Tumor growth was monitored with vernier calipers. The mean tumor volume was calculated using the formula V=W^2×L/2. When the mean tumor volume (MTV) reached approximately 105 mm^3, the animals were randomized into 8 treatment groups (n=8/group). […] Tumor growth and body weight were measured twice per week. Tumor growth inhibition and body weight change were calculated on Day 99 of treatment.
Antitumor activity was determined by calculating the percent TGI ([mean tumor volume of the control group−mean tumor volume of a treated group]/mean tumor volume of the control group) on Day 99. Treatment started on Day 1 for 21 days. […] The use of Day 99 allows us to evaluate tumor response and statistically compare the ΔAUC for each group over the regrowth period.
Additional endpoints used to evaluate efficacy were: complete and partial tumor response CR and PR), and the number of tumor-free survivors (TFS) at the end of the study.
Statistical Analysis: Statistical analysis was performed with a linear mixed effects regression model. This model takes into account the differences in trends of tumor growth between control and treated samples. Differences among mice were treated as random effects, and a compound symmetry covariance structure was used to model the variability between repeated tumor measurements on each mouse. Treatment comparisons were performed by using the fitted curves from the model to calculate the changes in the areas under the tumor volume-versus-time curves (ΔAUCs). The significance of the ΔAUC was assessed using permutation testing. P-values <0.05 were considered significant.
The change in AUC relative to the control was calculated for both single agent treatment groups as well as the combination group.

[5] = system: A2780 cells; assay: Quantification of sub-diploid cells by flow cytometry; settings: A2780, 96 hours, single agents: TAK-733 50 nM or 200 nM, MLN8237 20 nM (50 nM MLN8237 sample was the exception), FIG. 2A
Protocol: Sub-diploid cells were gated as those with a lower level of propidium iodide fluorescence than cells with 2N DNA content.
as §1

[6] = system: PC-3; assay: BrdU proliferation assay, PC-3; settings: Homo sapiens, PC-3, 96 h
Protocol: as §2, §3

[7] = system: A2780; assay: BrdU proliferation assay, A2780; settings: Homo sapiens, A2780, 96 h
Protocol: as §2, §3

[8] = system: A375; assay: BrdU proliferation assay, A375; settings: Homo sapiens, A-375, 96 h
Protocol: as §2, §3

[9] = system: Panc-1 Human Pancreatic Carcinoma Xenografts; assay: Antitumor activity in female nude mice bearing Panc-1 xenografts; settings: MLN8237 30 mg/kg QD for 21 days (oral per title; b268 prints SC); Day 63; p<0.001 vs vehicle
Protocol: Experimental Design: Low passage (passage TC08) Panc-1 cells (ATCC, Manassas, Va., USA) were grown in Roswell Park Memorial Institute (RPMI)-1640 (ATCC, Manassas, Va., USA) 10% Fetal Bovine Serum (PAA Laboratories PTY LTD, Morningside, QLD, Australia) and supplied at a concentration of 5.0×10^7 cells/mLl in Dulbecco's phosphate-buffered saline (DPBS) (Invitrogen-Gibco, Grand Island, N.Y., USA). Cells were mixed 1:1 with Matrigel support (BD Biosciences, Bedford, Mass., USA) and 5.0×10^6 Panc-1 cells/animal (0.2 mL injection volume) were implanted SC into the right flank of female Balb/c nude mice.
Tumor growth was monitored twice weekly using calipers and the mean tumor volume was calculated using the formula (0.5×[length×width^2]). […] Tumor size and body weight were measured twice weekly and the study was terminated on Day 63 when tumors in the control group reached approximately 1127.8 mm^3. Tumor volumes and BW of animals in the combination treatment group were monitored up to Day 111.
Antitumor activity was determined by calculating the percent TGI ([mean tumor volume of the control group—mean tumor volume of a treated group]/mean tumor volume of the control group) on Day 63. Treatment started on Day 1 and lasted through Day 21. Maximum percent BWL was evaluated during the treatment period (Day 1-Day 21). […]

[10] = system: SKMEL-2; assay: Cells with greater than 4N DNA by flow cytometry, SKMEL-2
Protocol: as §1

[11] = system: A375; assay: Cells with greater than 4N DNA by flow cytometry, A375
Protocol: as §1

[12] = MLN8237 30 mg/kg PO for 21 days, mice of 8

## COc1cc(Nc2ncc3c(n2)-c2ccc(Cl)cc2C(c2c(F)cccc2OC)=NC3)ccc1C(=O)[O-].O.[Na+] [MLN8237]
[1]; PC3, 24 Hr, DMSO 10.5
  Percentage of cells with greater than 4N DNA: 21%
[1]; PC3, 48 Hr, DMSO 10.7
  Percentage of cells with greater than 4N DNA: 30.5%
[2]; A2780, 24 Hr, DMSO 1.7
  Percentage of cells with greater than 4N DNA: 9.6%
[2]; A2780, 48 Hr, DMSO 2.2
  Percentage of cells with greater than 4N DNA: 13%
[3]; read-out: MLN8237 IC50, SKMEL-2, TAK-733 0.0 nM
  IC50: 67 nM
[3]; read-out: MLN8237 IC50, SKMEL-2, TAK-733 0.01 nM
  IC50: 66 nM
[3]; read-out: MLN8237 IC50, SKMEL-2, TAK-733 0.1 nM
  IC50: 54 nM
[3]; read-out: MLN8237 IC50, SKMEL-2, TAK-733 1 nM
  IC50: 48 nM
[3]; read-out: MLN8237 IC50, SKMEL-2, TAK-733 10 nM
  IC50: 16 nM
[3]; read-out: MLN8237 IC90, SKMEL-2, TAK-733 0.0 nM
  IC90: > 5000 nM
[3]; read-out: MLN8237 IC90, SKMEL-2, TAK-733 0.01 nM
  IC90: > 5000 nM
[3]; read-out: MLN8237 IC90, SKMEL-2, TAK-733 0.1 nM
  IC90: > 5000 nM
[3]; read-out: MLN8237 IC90, SKMEL-2, TAK-733 1 nM
  IC90: > 5000 nM
[3]; read-out: MLN8237 IC90, SKMEL-2, TAK-733 10 nM
  IC90: 309 nM
[4]; MLN8237 20 mg/kg PO QD for 21 days, p>0.05 vs control
  TGI: 43.4%
[4]; MLN8237 20 mg/kg PO QD for 21 days
  TFS (tumor-free survivors): 2
[4]; MLN8237 20 mg/kg PO QD for 21 days, mice of 8
  CR (complete tumor response): 2 of 8
[4]; MLN8237 30 mg/kg PO for 21 days, p<0.05 vs vehicle
  TGI: 73.3%
[4]; MLN8237 30 mg/kg PO for 21 days
  TFS (tumor-free survivors): 2
[4]; [12]
  CR (complete tumor response): 4 of 8
  PR (partial tumor response): 4 of 8
[5]
  percentage of sub-diploid cells relative to DMSO: neither TAK-733 nor MLN8237 caused appreciable increases
[6]; read-out: MLN8237 IC50, PC-3, TAK-733 0.0 nM
  IC50: 134 nM
[6]; read-out: MLN8237 IC50, PC-3, TAK-733 16 nM
  IC50: 84 nM
[6]; read-out: MLN8237 IC50, PC-3, TAK-733 80 nM
  IC50: 93 nM
[6]; read-out: MLN8237 IC50, PC-3, TAK-733 400 nM
  IC50: 100 nM
[6]; read-out: MLN8237 IC50, PC-3, TAK-733 2000 nM
  IC50: 74 nM
[6]; read-out: MLN8237 IC90, PC-3, TAK-733 0.0 nM
  IC90: > 5000 nM
[6]; read-out: MLN8237 IC90, PC-3, TAK-733 16 nM
  IC90: > 5000 nM
[6]; read-out: MLN8237 IC90, PC-3, TAK-733 80 nM
  IC90: 1060 nM
[6]; read-out: MLN8237 IC90, PC-3, TAK-733 400 nM
  IC90: 890 nM
[6]; read-out: MLN8237 IC90, PC-3, TAK-733 2000 nM
  IC90: 569 nM
[7]; read-out: MLN8237 IC50, A2780, TAK-733 0.0 nM
  IC50: 43 nM
[7]; read-out: MLN8237 IC50, A2780, TAK-733 0.64 nM
  IC50: 34 nM
[7]; read-out: MLN8237 IC50, A2780, TAK-733 3.2 nM
  IC50: 29 nM
[7]; read-out: MLN8237 IC50, A2780, TAK-733 16 nM
  IC50: 19 nM
[7]; read-out: MLN8237 IC50, A2780, TAK-733 80 nM
  IC50: 11 nM
[7]; read-out: MLN8237 IC90, A2780, TAK-733 0.0 nM
  IC90: > 5000 nM
[7]; read-out: MLN8237 IC90, A2780, TAK-733 0.64 nM
  IC90: > 5000 nM
[7]; read-out: MLN8237 IC90, A2780, TAK-733 3.2 nM
  IC90: 288 nM
[7]; read-out: MLN8237 IC90, A2780, TAK-733 16 nM
  IC90: 28 nM
[7]; read-out: MLN8237 IC90, A2780, TAK-733 80 nM
  IC90: 46 nM
[8]; read-out: MLN8237 IC50, A375, TAK-733 0.0 nM
  IC50: 59 nM
[8]; read-out: MLN8237 IC50, A375, TAK-733 0.0001 nM
  IC50: 73 nM
[8]; read-out: MLN8237 IC50, A375, TAK-733 0.001 nM
  IC50: 63 nM
[8]; read-out: MLN8237 IC50, A375, TAK-733 0.01 nM
  IC50: 58 nM
[8]; read-out: MLN8237 IC50, A375, TAK-733 0.1 nM
  IC50: 62 nM
[8]; read-out: MLN8237 IC50, A375, TAK-733 1 nM
  IC50: 65 nM
[8]; read-out: MLN8237 IC90, A375, TAK-733 0.0 nM
  IC90: 530 nM
[8]; read-out: MLN8237 IC90, A375, TAK-733 0.0001 nM
  IC90: 554 nM
[8]; read-out: MLN8237 IC90, A375, TAK-733 0.001 nM
  IC90: 408 nM
[8]; read-out: MLN8237 IC90, A375, TAK-733 0.01 nM
  IC90: 882 nM
[8]; read-out: MLN8237 IC90, A375, TAK-733 0.1 nM
  IC90: 325 nM
[8]; read-out: MLN8237 IC90, A375, TAK-733 1 nM
  IC90: > 5000 nM
[9]
  TGI: −6.4%
[10]; SKMEL-2, 24 Hr, DMSO 3.1
  Percentage of cells with greater than 4N DNA: 14.5%
[10]; SKMEL-2, 48 Hr, DMSO 2.7
  Percentage of cells with greater than 4N DNA: 36.4%
[11]; A375, 24 Hr, DMSO 0.9
  Percentage of cells with greater than 4N DNA: 16%
[11]; A375, 48 Hr, DMSO 1.4
  Percentage of cells with greater than 4N DNA: 18.6%
